The values below come from patent publication US20080241265A1, “Pharmaceutical Combinations Containing Lamivudine, Stavudine and Nevirapine” (priority 2005, published 2008).

Structures are written as SMILES. Entries after “also recorded” stand apart in the source; their conditions may differ.

The nature of the data set: Compatibility study of homogeneous mixtures of the active ingredients (appearance and impurities after storage). It is filed as physicochemical. The note with it: conclusion from the four-week mixture study. The source says: Study was designed so as to evaluate the physico-chemical parameters of these three drugs.

As for `Nc1ccn([C@@H]2CS[C@H](CO)O2)c(=O)n1` [Lamivudine, (2R-cis)-4-Amino-1-[2-(hydroxymethyl) 1,3-oxathiolan-5-yl]-2(1H)-pyrimidinone], the “Compatibility with the other active ingredient” value was “compatible with Nevirapine; also recorded: not with Stavudine”.

Regarding `Cc1cn([C@H]2C=C[C@@H](CO)O2)c(=O)[nH]c1=O` [stavudine, (3′-deoxythymidin-2′-ene(3′-deoxy-2′,3′-didehydrothymidine)], the “Compatibility with the other active ingredient” value is “incompatible with nevirapine”.
